From patent US20170218397A1, “C[…] GENE THERAPY VECTOR FOR […] CELL MO[…] ANTI HIV GENE THERAPY” (Texas Tech University System, priority 2014, published 2017)

What was measured:
[1] = herpes (CMV) treatment in HIV infected patients; cited from earlier work
HIV = experiment: Viability, HIV replication and cytopathic effect in transduced T cells infected with HIV with GCV; assay type: cell-based
Excerpt: FIG. 10 depicts photographic images of cells in accordance with experimental embodiments.

In the case of Nc1nc(O)c2ncn(COC(CO)CO)c2n1 [Ganciclovir], the “toxicity or side effects” value [1] is given as “without significant toxicity or side effects”, the “viability of transduced T cells infected with HIV” value (HIV) is given as “increased viability” and the HIV replication (HIV; in the presence of GCV) is given as “diminished HIV replication”.
